From the NIST ThermoML archive (doi:10.1021/je060416d)

Conditions: Liquid, Vibrating wire viscometry

C1CCCC1 [cyclopentane]
viscosity [mPa·s]
Conditions	273.15 K	293.15 K	298.15 K	313.15 K	333.15 K	353.15 K
100 kPa	0.5628	0.4413	0.4167	–	–	–
10000 kPa	0.6148	0.4827	0.4583	0.392	0.3247	–
15000 kPa	–	–	–	–	–	0.2868
30000 kPa	0.7203	0.5708	0.5409	0.4646	0.3882	0.3291
40000 kPa	0.7767	0.6167	0.5846	–	–	–
45000 kPa	–	–	–	0.5222	0.4364	0.3727
